Assay results: US4186184A, “Selective administration of drug with ocular therapeutic system” (priority 1979, dated 1980)
Values belong to the molecule of their own block, whether it stands above or below them.

Experiments:
[1] = in vivo
Procedure: Ocular dispensing system of elliptical shape for administering a drug to the tissue compartments of the eye over a prolonged period of time and having a length of 4 to 20 millimeters, a width of 1 to 15 millimeters and a thickness of 0.1 to 4 millimeters are prepared by mixing liquid polydimethylsiloxane, chloramphenicol and stannous octate and curing the mixture at room temperature. The resulting matrix is placed in a pre-shaped and sized ethylene-vinyl acetate copolymer tube and the opened end adhesively sealed to provide a solid matrix containing drug. Then, 90% of the exposed surface of the copolymer is surrounded with cross-linked drug impermeable polyamide.

[2] = Drug release rate through system membranes (Example 8); type: physicochemical; conditions: area 1 cm^2, membranes 2 mils thick
Procedure: Following the procedure set forth in Example 1, an ocular drug delivery system shaped like a circle 6 mm by 2.5 mm is prepared according to the described procedure except one of the membrane is formed from commercially available laminate of cellulose acetate and nylon-66 that is substantially impermeable to the passage of hydrocortisone alcohol in the reservoir of the system. The area of the system is 1 cm^2, and the membranes are 2 mils thick. The drug release rate for the ethylene-vinyl acetate copolymer film which is permeable to the steroid is about 40 micrograms per hour, and the release rate for the laminate cellulose acetate nylon is about 1 to 2 micrograms per hour.

[3] = Release of drug from osmotic ocular therapeutic system in simulated ocular aqueous environment (UV, 215 nm); type: physicochemical
Procedure: A drug delivery system for the prolonged release of pilocarpine nitrate to the internal part of the eye is prepared and tested in the following manner: first, a reservoir formed of a drug and a polymer in intimate mixture is prepared according to the described procedure. A 7 gram portion of micronized pilocarpine nitrate is admixed with 3 grams of an ethylene-vinyl acetate copolymer having a vinyl acetate content of about 40% and having a melt index of […], as measured by ASTM D 1238-modified test. The copolymer has a tensile strength of about 600-700 psi and an elongation at break of 1400% to 1500%. It is impermeable to pilocarpine nitrate but permeable to water. […] The pilocarpine nitrate micronized particles are on average ~40 microns in diameter. The mixture is heated to 120° C. and cast as a 0.6 mm thick film. Next, a thin, water and drug impermeable thin film of butyl rubber is laminated to one side of the film thereby forming a system with a single drug portal. Finally, a number of 6 mm discs, suitable in size for insertion and retention in the eye, are cut from the 0.6 mm thick film. These discs have a portal with a surface area of […]. Osmotic bursting devices are the invention of Michaels and Gulloid as described in United States Patent Application Ser. No. 578,979 filed on May 19, 1975.
The release of drug from the ocular therapeutic system is determined by placing the systems in a simulated ocular aqueous environment. The outermost drug depots imbibs water through the sole exposed surface, swell, and burst their enclosing membranes, releasing their drug from the reservoir and exposing innermost depots. The amount of drug released in this rate controlled osmotic system is monitored by a UV spectrometer set at 215 nanometer wavelength. A relatively rapid release of pilocarpine nitrate begins to be noticed. The release continues for about 22 hours at a rate gradually decreasing from an initial 400 micrograms per hour to about 250 micrograms per hour after 22 hours. After 22 hours, the release rate falls rapidly.

[4] = rabbit, in vivo
[5] = cited from earlier work
[6] = parameters: species or system New Zealand white rabbits; conditions: rabbit, in vivo
Procedure: After the ocular systems were in the cul-de-sac 24 hours, they were removed, and a tear sample collected for measuring its pilocarpine content. Then, the systems were returned to the cul-de-sac for one-half hour, the rabbits sacrificed, and an aqueous humor sample immediately withdrawn for measuring the pilocarpine content thereof.
The sutures thus placed, restricted the movement of the ocular systems so that lateral and vertical movement of the ocular systems could not exceed a distance of more than 2 mm. Tear samples were collected and processed in the same way as were tear samples from ocular systems releasing 20 and 40 micrograms per hour.
A second set of ocular systems were used in these experiments and they were manufactured with a size and shape that corresponded to the above ocular systems, except that these latter systems were unireleasing ocular systems. That is, the ocular systems released pilocarpine from a single portal. […] These systems were positioned in the cul-de-sac, with the portal oriented towards the sclera, and tears and aqueous humor samples were taken and analyzed for their pilocarpine content as described above. […]
Selection of an ocular drug receptor site for administering a drug thereto can be easily ascertained by following the above procedures. […] For example, the physiological effect can be determined by measuring ocular pressure and increased vision. […]

[7] = Example 16, single portal osmotic system

SMILES: O=C(N[C@H](CO)[C@H](O)c1ccc([N+](=O)[O-])cc1)C(Cl)Cl [chloramphenicol]
Discomfort or irritation in the eye [1]: no discomfort or irritation

SMILES: C[C@]12CCC(=O)C=C1CC[C@@H]1[C@@H]2[C@@H](O)C[C@@]2(C)[C@H]1CC[C@]2(O)C(=O)CO [hydrocortisone alcohol]
Drug release rate for the ethylene-vinyl acetate copolymer film [2]: about 40 micrograms per hour

Duration of release ([3]; Example 16, release rate falls rapidly thereafter): about 22 hours | Release rate after 22 hours [3, 7]: about 250 micrograms per hour | Release rate, initial [3, 7]: 400 micrograms per hour | Aqueous concentrations of osmotic system compared with diffusional systems [4]: substantially similar
SMILES: CC[C@@H]1C(=O)OC[C@@H]1Cc1cncn1C [pilocarpine nitrate]
Solubility in water [5]: about 25%

Absorption and transfer into aqueous humor from bulbar side relative to palpebral side [6]: at least 10 times | Aqueous humor pilocarpine concentration increase per 5 μg/hr increase in rate of release per portal [4]: 0.4 μg/ml per 5 μg/hr | Mean aqueous humor pilocarpine concentration with palpebral delivery relative to bulbar delivery [4]: 11%
SMILES: CC[C@@H]1C(=O)OC[C@@H]1Cc1cncn1C [pilocarpine]
